Data reported in PMC3433420 (PLoS ONE, 2012).
“And” between values parts separate entries of the source, which are not always exact repeats. Identical values can stand only once. Like-named read-outs stand apart in the source and are kept apart here. Blank lines part the entries; values can stand above or below the compound they belong to. Residues, ends and D or L forms follow the SMILES beside them.

Columns and labels:
[1] = target: PIK3R2-NC tandem SH2 domains (Homo sapiens, UniProt O00459); assay: FP saturation binding assay
Sequence of PIK3R2-NC tandem SH2 domains (O00459 330-716 limits assumed): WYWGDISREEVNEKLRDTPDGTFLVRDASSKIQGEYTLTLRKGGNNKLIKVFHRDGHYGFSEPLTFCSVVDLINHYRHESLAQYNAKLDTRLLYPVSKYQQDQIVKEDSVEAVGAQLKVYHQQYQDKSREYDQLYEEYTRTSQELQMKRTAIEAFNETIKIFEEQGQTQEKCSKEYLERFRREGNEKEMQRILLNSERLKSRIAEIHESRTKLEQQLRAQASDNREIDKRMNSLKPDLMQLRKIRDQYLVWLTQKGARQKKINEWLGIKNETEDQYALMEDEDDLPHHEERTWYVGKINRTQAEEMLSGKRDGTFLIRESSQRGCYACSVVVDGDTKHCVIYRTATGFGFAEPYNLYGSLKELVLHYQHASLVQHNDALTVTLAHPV

SHC2-PTB domain = SHC2-PTB domain (Homo sapiens, UniProt P98077); assay: FP saturation binding assay
Sequence of SHC2-PTB domain (P98077 147-329 limits assumed): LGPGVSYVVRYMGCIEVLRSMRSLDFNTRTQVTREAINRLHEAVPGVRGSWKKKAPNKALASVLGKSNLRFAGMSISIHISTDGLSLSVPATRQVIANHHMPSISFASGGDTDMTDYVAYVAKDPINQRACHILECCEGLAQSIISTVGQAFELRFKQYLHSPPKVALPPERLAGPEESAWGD

PIK3R1-N SH2 domain [2] = target: T1, PIK3R1-N SH2 domain (Homo sapiens, UniProt P27986); assay: biochemical; assay type: binding; settings: FP, PIK3R1-N; mean; NA = no interaction detected
T1 construct: thioredoxin; made in house; host or cells: E. coli BL21(DE3)pLysS
T1 sequence (P27986 333-428 limits assumed): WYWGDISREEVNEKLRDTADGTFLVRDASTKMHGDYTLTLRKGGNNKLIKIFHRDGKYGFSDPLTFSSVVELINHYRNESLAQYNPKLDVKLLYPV

PIK3R3-C SH2 domain [3] = target: T2, PIK3R3-C SH2 domain (Homo sapiens, UniProt Q92569); assay: biochemical; assay type: binding; settings: FP, PIK3R3-C; mean; NA = no interaction detected
T2 construct: thioredoxin; made in house; host or cells: E. coli BL21(DE3)pLysS

PIK3R3-C SH2 domain [4] = target: T2, PIK3R3-C SH2 domain; assay: Surface plasmon resonance (Biacore 3000); assay type: binding; settings: SPR, NA = no interaction detected
Description: (§1) All SPR experiments were performed using Biacore 3000 (GE HealthCare, Piscataway, NJ) instrumentation. 6X His-tagged SH2 domain proteins were immobilized on a nitriloacetic acid (NTA) sensor chip (GE HealthCare, Piscataway, NJ) charged with Ni^2+ ions. Dye-free ErbB family peptides were applied to the sensor chip in a single flow cell in solution phase (while the other flow cell was used as a reference control) and binding events were measured under equilibrium conditions. FP false positive [drawing 7] (FPR), false discovery [drawing 8] (FDR), and false negative [drawing 9] (FNR) rates were calculated by defining true positives (TP) as interactions detected by both FP and SPR, true negatives (TN) as interactions detected by neither FP nor SPR; false positives as interactions identified by FP but not validated by SPR; and false negatives (FN) as interactions missed by FP but detected by SPR. Additional details for all methods are provided in the Supplementary Methods.
A randomly selected set of 12 recombinant SH2 domain proteins and unlabeled (rhodamine dye free) peptides (9 ErbB, 2 GAB1, 2 KIT, 2 MET) were generated for the surface plasmon resonance (SPR) validation study. The 6X His-tagged SH2 domain proteins used in the assay, PLCG1-C, SHC4, VAV2, TNS3, PIK3R3-C, SYK-C, PIK3R1-N, SUPT6H, CRKL, TEC, SHB, and SHC3 were produced and purified as previously described (see “SH2 and PTB domain proteins” section and Jones et al., 2006). Fresh protein stocks were generated so as to avoid bias incurred from proteins previously used in the FP assays. 13-mer peptides corresponding to ErbB1 pY801, ErbB1 pY900, ErbB1 pY978, ErbB1 pY1069, ErbB2 pY685, ErbB pY803, ErbB3 pY912, ErbB4 pY833, ErbB4 pY906, GAB1 pY183, GAB1 pY472, KIT pY570, KIT pY936, MET pY1093 and MET pY1313, were synthesized successfully for the assay using previously described approaches (see “FP competitor peptide synthesis” section). For SPR detection via the Biacore 3000 (GE HealthCare, Piscataway, NJ), His-tagged SH2 domains were immobilized on Biacore NTA sensor chips (GE HealthCare, Piscataway, NJ) pre-charged with Ni^2+ ions in one flow cell while the second served as a negative control reference cell. Peptides were introduced in solution phase to both cells and relative response units (RUs) were recorded from output sensograms. Nine concentrations of peptide and a buffer control, in duplicate, were used to determine KDs using the equilibrium method (best-fit simultaneous modeling for peptide association and disassociation curves).

PIK3R1-N SH2 domain [5] = target: T1, PIK3R1-N SH2 domain; assay: Surface plasmon resonance (Biacore 3000); assay type: binding; settings: SPR, NA = no interaction detected
Description: as §1
(§2) Fresh protein stocks were generated so as to avoid bias incurred from proteins previously used in the FP assays. […]

GRB7 SH2 domain [6] = target: T3, GRB7 SH2 domain (Homo sapiens, UniProt Q14451); assay: FP saturation binding assay; settings: read-out: Ki ( exp FP); competing peptide, GRB7; Ki expected from FP; NI = no interaction
T3 sequence (Q14451 431-527 limits assumed): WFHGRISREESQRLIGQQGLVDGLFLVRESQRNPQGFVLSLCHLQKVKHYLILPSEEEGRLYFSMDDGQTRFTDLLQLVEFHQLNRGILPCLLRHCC

RASA1-N SH2 domain [7] = target: T4, RASA1-N SH2 domain (Homo sapiens, UniProt P20936); assay: FP saturation binding assay
T4 sequence (P20936 181-272 limits assumed): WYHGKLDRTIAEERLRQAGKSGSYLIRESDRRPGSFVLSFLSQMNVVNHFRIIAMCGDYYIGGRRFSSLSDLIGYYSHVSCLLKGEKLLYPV

GRB7 SH2 domain [8] = target: T3, GRB7 SH2 domain; assay: FP competition assay; assay type: binding; parameters: 6X His; thioredoxin; made in house; host or cells: E. coli BL21(DE3)pLysS; settings: labeled peptide ErbB3pY1197, Fig. 3 graph C, read-out: Ki (obs)
Description: (§3) Unlabeled phosphopeptides were synthesized with some modifications to the previously described protocol. […] Unlabeled competitor peptides were prepared at 11 serial 1∶3 dilutions in assay buffer; one control with no unlabeled competitor peptides was also included with each experimental set. The fluorescent peptide, protein, and unlabeled peptide mixtures were allowed to incubate for a minimum of 20 minutes in 384-well plates and polarization signals were measured using the Analyst GT multimode reader as previously described above. Inhibition curves were constructed by four-parameter log-logistic regression using the “drc” package in R with the parameters for maximum and minimum fluorescence fixed according to Z’ factor positive and negative control values. IC50 values were estimated from these fits under a one-site competition binding model and Ki calculated according to the equation developed by.

RASA1-N SH2 domain [9] = target: T4, RASA1-N SH2 domain; assay: FP competition assay; assay type: binding; parameters: 6X His; thioredoxin; made in house; host or cells: E. coli BL21(DE3)pLysS; settings: RASA1N, Fig. 3 graph A, read-out: Ki (obs)
Description: as §3

SRC SH2 domain = target: T5, SRC SH2 domain (Homo sapiens, UniProt P12931); assay: FP competition assay; assay type: binding; settings: labeled peptide ErbB3pY1222, Fig. 3 graph B, read-out: Ki (obs)
T5 construct: between the c-Src SH2 domain and ErbB1 in our FP assay; 6X His; thioredoxin; made in house; host or cells: E. coli BL21(DE3)pLysS
T5 sequence (P12931 151-248 limits assumed): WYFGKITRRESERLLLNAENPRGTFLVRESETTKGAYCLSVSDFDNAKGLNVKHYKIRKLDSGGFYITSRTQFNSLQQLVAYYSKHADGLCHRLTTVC
Description: as §3

SHC3 SH2 domain [10] = target: T6, SHC3 SH2 domain (Homo sapiens, UniProt Q92529); assay: FP saturation binding assay
T6 sequence (Q92529 499-590 limits assumed): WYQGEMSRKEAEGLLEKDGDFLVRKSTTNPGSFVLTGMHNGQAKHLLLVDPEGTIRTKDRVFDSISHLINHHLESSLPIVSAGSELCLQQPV

TNS3 SH2 domain = target: T7, TNS3 SH2 domain (Homo sapiens, UniProt Q68CZ2); assay: FP saturation binding assay
T7 sequence (Q68CZ2 1172-1282 limits assumed): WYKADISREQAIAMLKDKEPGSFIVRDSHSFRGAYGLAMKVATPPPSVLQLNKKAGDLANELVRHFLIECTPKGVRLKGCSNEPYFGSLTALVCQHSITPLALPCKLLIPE

SHC3 SH2 domain [11] = target: T6, SHC3 SH2 domain; assay: Surface plasmon resonance (Biacore 3000); assay type: binding; parameters: A randomly selected set of 12 recombinant SH2 domain proteins; thioredoxin; made in house; host or cells: E. coli BL21(DE3)pLysS; settings: SPR, NA = no interaction detected
Description: as §1, §2

SH2 and PTB domains = assay: In-house protein microarrays (with or without 5 mM DTT), protein named per line; assay type: binding, human; settings: in-house protein microarray, protein named in c0 of the line, sheet ErbB4 pY733 (18-mer)
Description: 300 pL of purified recombinant proteins and a thioredoxin tag control were spotted at a concentration of ∼40 µM in duplicate onto aldehyde-coated microscope slides (Erie Scientific Company, Portsmouth, NH) using a Nano-Plotter (NP) 2.1/E noncontact microarrayer (GeSiM, Munich, Germany). 16 identical microarrays per slide were printed in a 2×8 (column by row) format with distances of 9 mm between individual arrays; each array consisted of a 14×14 configuration of spots 400 µm apart. Following printing at a constant humidity level of 50%, slides were desiccated overnight and stored at −80°C. For peptide probing, array slides were transferred to 96-well microplates (TeleChem International, Inc., Sunnyvale, CA) and sandwiched with silicone gaskets. Prior to peptide addition, aldehyde sites were quenched with buffer B (20 mM HEPES, 100 mM KCl, 0.1% Tween-20, 5 mM DTT, pH 7.8) containing 1% bovine serum albumin (BSA) (w/v) for one hour at room temperature; moderate agitation was applied in a plate shaker (IKA, Germany) to displace glycerol from the surface area of protein sample spots. […] The arrays were subsequently washed once with 300 µL of buffer B and once with 300 µL of ddH2O. Residual water was removed by centrifugation; slides were stored under desiccation in the dark until analysis.
Microarray slides were scanned at a resolution of 10 µm using a GenePix 4000B microarray scanner and analyzed using GenePix Pro v6.0 software (Molecular Devices, Sunnyvale, CA). To independently visualize protein spots irrespective of peptide binding, samples were printed simultaneously with 400 nM of Cyanine-5 (Cy5) labeled bovine serum albumin (BSA). […] Following spot layout identification via Cy5 labeled BSA, the mean fluorescence intensity of rhodamine for duplicate protein spots was quantified and normalized by subtracting the corresponding mean fluorescence intensity of thioredoxin. Normalized fluorescence values were then imported into MATLAB and KDs determined as previously described.

- Kd [1]: 6930 nM
- Kd (SHC2-PTB domain): 5420 nM
Compound: CC(C)C[C@H](NC(=O)[C@H](CCC(=O)O)NC(=O)[C@H](Cc1c[nH]c2ccccc12)NC(=O)[C@@H](NC(=O)[C@@H](NC(=O)[C@@H](NC(=O)CNC(=O)[C@H](Cc1ccc(O)cc1)NC(=O)[C@H](CO)NC(=O)[C@H](Cc1c[nH]c2ccccc12)NC(=O)[C@@H](NC(=O)[C@@H](N)CC(=O)O)C(C)C)C(C)C)[C@@H](C)O)C(C)C)C(=O)N[C@@H](CC(=O)O)C(=O)O [ErbB1 Y900 (non-phospho)]

Compound: CC[C@H](C)[C@H](NC(=O)[C@@H](N)CCCCN)C(=O)N[C@@H](CCCNC(=N)N)C(=O)N[C@@H](CCCCN)C(=O)N[C@@H](Cc1ccc(OP(=O)(O)O)cc1)C(=O)N[C@H](C(=O)N[C@@H](CCSC)C(=O)N[C@@H](CCCNC(=N)N)C(=O)N[C@@H](CCCNC(=N)N)C(=O)N[C@@H](CC(C)C)C(=O)N[C@@H](CC(C)C)C(=O)N[C@@H](CCC(N)=O)C(=O)N[C@@H](CC(=O)O)C(=O)O)[C@@H](C)O [ErbB2 685] (HELM PEPTIDE1{K.I.R.K.[O=C([C@H](Cc1ccc(OP(=O)(O)O)cc1)N[*:1])[*:2]].T.M.R.R.L.L.Q.D}$$$$V2.0)
- Kd (PIK3R1-N SH2 domain [2]): 2510 nM
- Kd (PIK3R3-C SH2 domain [3]): 4430 nM
- Kd (PIK3R3-C SH2 domain [4]): 1520 nM
- Kd (PIK3R1-N SH2 domain [5]): 13400 nM

Compound: CC(C)C[C@H](NC(=O)[C@H](Cc1ccc(OP(=O)(O)O)cc1)NC(=O)[C@H](CCC(=O)O)NC(=O)[C@@H]1CCCN1C(=O)[C@H](CC(N)=O)NC(=O)[C@@H](N)CCC(=O)O)C(=O)N[C@H](C(=O)N1CCC[C@H]1C(=O)N[C@@H](CCC(N)=O)C(=O)NCC(=O)NCC(=O)N[C@@H](C)C(=O)N[C@@H](CC(=O)O)C(=O)O)[C@@H](C)O [ErbB2 pY1196]
- Ki (GRB7 SH2 domain [6]): > 20000 nM
- Kd (RASA1-N SH2 domain [7]): 1860 nM
- Ki (GRB7 SH2 domain [8]): 10900 nM
- Ki (RASA1-N SH2 domain [9]; labeled peptide ErbB2pY1196): 2290 nM
- Ki (RASA1-N SH2 domain [9]; labeled peptide ErbB3pY1307): 3540 nM

Compound: CSCC[C@H](NC(=O)[C@H](Cc1ccc(O)cc1)NC(=O)[C@H](CCC(=O)O)NC(=O)[C@H](Cc1ccc(OP(=O)(O)O)cc1)NC(=O)CNC(=O)[C@H](CC(C)C)NC(=O)[C@H](CCC(=O)O)NC(=O)[C@@H](N)CCC(=O)O)C(=O)N[C@@H](CC(=O)O)C(=O)N[C@H](C(=O)NCC(=O)N[C@@H](CO)C(=O)N[C@@H](CC(=O)O)C(=O)O)C(C)C [ErbB3 pY1222] (HELM PEPTIDE1{E.E.L.G.[O=C([C@H](Cc1ccc(OP(=O)(O)O)cc1)N[*:1])[*:2]].E.Y.M.D.V.G.S.D}$$$$V2.0)
- Ki (SRC SH2 domain): 2360 nM

Compound: CC[C@H](C)[C@H](NC(=O)[C@@H](NC(=O)[C@@H](NC(=O)CNC(=O)[C@H](Cc1ccc(OP(=O)(O)O)cc1)NC(=O)[C@H](CO)NC(=O)[C@H](Cc1c[nH]c2ccccc12)NC(=O)[C@@H](NC(=O)[C@@H](N)CC(=O)O)C(C)C)C(C)C)[C@@H](C)O)C(=O)N[C@@H](Cc1c[nH]c2ccccc12)C(=O)N[C@@H](CCC(=O)O)C(=O)N[C@@H](CC(C)C)C(=O)N[C@@H](CC(=O)O)C(=O)O [ErbB4 906] (HELM PEPTIDE1{D.V.W.S.[O=C([C@H](Cc1ccc(OP(=O)(O)O)cc1)N[*:1])[*:2]].G.V.T.I.W.E.L.D}$$$$V2.0)
- Kd (PIK3R3-C SH2 domain [3]): 1840 nM
- Kd (PIK3R3-C SH2 domain [4]): 566 nM
- Kd (SHC3 SH2 domain [10]): 540 nM
- Kd (TNS3 SH2 domain): 800 nM
- Kd (SHC3 SH2 domain [11]): 6710 nM

- Kd (SH2 and PTB domains; PM Assay Replicate # 39307, Array Fabrication # 39320): 800 nM and 400 nM
- Kd (SH2 and PTB domains; PM Assay Replicate # 39334, Array Fabrication # 39329): 790 nM
Compound: LGSGAFGTVpYKGIWVPEd [ErbB4 pY733 (18-mer), N-terminally rhodamine-labeled 18-mer phosphopeptide]
